Data: patent publication EP4803511A1, “SMALL MOLECULE COMPOUND HAVING SULFONIC ACID OR SULFINIC ACID LACTONE STRUCTURE, COMPOSITION AND USE THEREOF” (Hangzhou Phecdamed Co., Ltd., priority 2023, dated 2025)

Columns and labels:
Mn-sod = test: Zebrafish oxidative aging model (menadione), Mn-sod gene expression by RT-qPCR; type: in vivo; settings: I-8 at 2.5, 7.5, and 22.2 µg/mL, 22 hrs, 4 µM menadione; compared to the modeling group, statistical significance
Experimental: (§1) Experimental animal: Healthy wild-type AB strain zebrafish at 48 hpf (hours post-fertilization)
(§2) Healthy AB strain zebrafish were taken as experimental animal. A zebrafish oxidative aging model was constructed using chemical mutagenesis with 4 µM menadione as the modeling drug. Fucoxanthin was used as a positive control compound. After treating the zebrafish oxidative aging model with different concentrations of I-8 for 22 hrs, changes in the reactive oxygen species (ROS) content, β-galactosidase activity, and the expression of three antioxidant and anti-aging related genes (Cu/Zn-sod, Mn-sod, and ampk) were respectively detected and statistically analyzed.
(§3) During the experiment, the modeling drug, positive compound, and I-8 were dispersed together in the culture water of zebrafish. […] Cell ROX™ Deep Red fluorescent probes and β-galactosidase staining kits were used to specifically label ROS and β-galactosidase in the fish, respectively, and the staining intensity was quantified using Image-Pro Plus software. After extracting RNA from the whole fish, the expression changes of three genes (Cu/Zn-sod, Mn-sod, and ampk) in the fish were detected at the mRNA level using Quantitative Real-time PCR (RT-qPCR). The data were statistically analyzed using GraphPad software.

ampk = test: Zebrafish oxidative aging model (menadione), ampk gene expression by RT-qPCR; type: in vivo; settings: I-8 at 2.5 µg/mL, 22 hrs, 4 µM menadione; compared to the modeling group, statistical significance
Experimental: as §1, §2, §3

type I collagen = test: Type I collagen expression in HSF human skin fibroblasts (ELISA); type: cell-based; settings: 24 hrs, dose-dependent
From the text: Skin fragility is partly attributed to changes in hemidesmosomes and the expression downregulation of various collagen proteins (Collagen I, III, IV, VII) or laminins (such as LN-5) at the dermal-epidermal junction. LN-5 has been proven to be a component of anchoring fibers in the basement membrane of the skin, cornea, conjunctiva, and other tissues. LN-5 participates in cell-cell interactions through the mediation of integrins and proteoglycans, thereby playing a crucial role in cell adhesion, growth, migration, and differentiation. The appearance of wrinkles is closely related to the normal synthesis and expression of collagen and laminins. Therefore, the increase of the above collagen content and LN-5 can achieve a certain role in resisting wrinkles, and plays an important role in the aging process of the skin. Therefore, the anti-wrinkle effect of the compound to be tested was evaluated by detecting the level of Collage I protein of […] by ELISA, and detecting the transcription levels of epidermal cells (keratinocytes) III, IV, VII and LN -5 by Real-Time PCR. The following Test Examples 8-1 and 8-2 evaluated the anti-wrinkle efficacy of compounds using HaCaT human immortalized keratinocytes and HSF human skin fibroblasts. […]

O=S1(=O)Oc2cc(O)ccc2-c2ccc(O)cc21 [Compound I-8]
expression of Mn-sod gene (Mn-sod): upregulated | expression of the ampk gene (ampk): upregulated | secretion of type I collagen (type I collagen): improving the secretion of type I collagen
